The source of these data is publication PMC7835950 (Frontiers in Chemistry, 2021).

Where “and” joins values, the source holds several entries; their conditions need not be identical. Identical values can stand only once.

Data set [1] in a line: Stability of the phosphonates and their esters during storage, by NMR. The data set is classed as physicochemical. Conditions: for decrease of purity: pure oil, room temperature, argon atmosphere, 6 months. Here is the method:
Stability of the purified phosphonates and their esterified precursor was analyzed by NMR after storage under the inert (pure argon) or ambient (air) atmosphere and in water solutions. ^1H, ^13C and ^31P NMR spectra were recorded at 400, 100.6, and 161.9 MHz, respectively with a Bruker Avance 400 spectrometer. Chemical shifts were calculated using D2O or CDCl3 as reference standards for trisodium salts and triesters, respectively. The spectra of the phosphonates and their esters before and after storage are shown in Supplementary Figures 1, 2 correspondingly.

Substrate in data set [2]: O=C(O)CCC(=O)C(=O)O
Description: purified protein, by the assay type. To be noted: pH 7.0.

Substrate in data set [3]: O=C(O)CCCC(=O)C(=O)O
As to the kind of experiment: OADH reaction catalyzed by the enzyme preparation from rat liver, high [OA] (low-affinity OA sites). The data set is classed as biochemical. To be noted: other: liver preparation, pH 7.0. Here is the method:
(§1) Enzymes catalyzing OGDH and OADH reactions were enriched from rat hearts and livers using polyethylene glycol precipitation, as previously described (Artiukhov et al., [2020]).
(§2) The enzyme activities were assayed in the medium (pH 7.0) containing 50 mM MOPS, 1 mM ThDP, 1 mM MgCl2, 1 mM CaCl2, 1 mM dithiothreitol 0.15 mM Coenzyme A, 0.25 mM NAD^+ and various concentrations of 2-oxo substrates (0–10 mM OG or OA) and their phosphonate analogs (0–5,000 μM SP, GP, or AP). Reactions were started by addition of the enzyme preparations to the assay media. The amount of enzyme preparations (0.074 mg protein for the preparation from liver and 0.023 mg protein for the preparation from heart) were chosen to induce the lowest reliably measured reaction rate (ΔA340 = 0.001/min) at 0.01 mM OA without the phosphonates.
(§3) Reaction rates were calculated from linear parts of the product accumulation curves (up to 10 min, dependent on the reaction rate), excluding the initial region, where mixing the reagents and solubilization of the preparation affected the optical density. […]
(§4) The kinetic data were also analyzed by linear regression, using the known methods of the linearization of the Michaelis-Menten equation in the Lineweaver-Burk ( 1/a=1/Amax(1+Km/[S]) ) and Eadie-Hofstee ( a=Amax−Kmv/[S] ) coordinates. […]

Substrate in data set [4]: O=C(O)CCCC(=O)C(=O)O
As to the kind of experiment: OADH reaction (OA saturation) catalyzed by the enzyme preparation from rat heart. The data set is classed as biochemical. To be noted: other: heart preparation; pH 7.0. Here is the method:
as §1, §2, §3, §4

Substrate in data set [5]: O=C(O)CCCC(=O)C(=O)O
Description: OADH reaction catalyzed by the enzyme preparation from rat liver, low [OA] (high-affinity OA sites). It counts as biochemical. Conditions: other: liver preparation, pH 7.0. Here is the method:
as §1, §2, §3, §4

Setting [6] is: 0.2 M aqueous solution, 5 days of shelf storage, 31P NMR.

With `CCOC(=O)CCCC(=O)P(=O)(OCC)OCC` [TEGP, triethyl glutaryl phosphonate], the compound preserved result in data set [1] (setting [6]) is “about 80%”. Also, in data set [1], the decrease of purity is reported as 4–6%.
The molecule `COC(=O)CCCCC(=O)P(=O)(OC)OC` [TMAP, trimethyl adipoyl phosphonate] yielded a compound decomposed in data set [1] (setting [6]) of 90%. Further, the decrease of purity in data set [1] is recorded as 4–6%.
Turning to `CCOC(=O)CCC(=O)P(=O)(OCC)OCC` [TESP, triethyl succinyl phosphonate], in data set [1], the decrease of purity is given as 4–6%.

B1: OGDH (Rattus norvegicus) (protein)
chain: SAPVAAEPFLSGTSSNYVEEMYCAWLENPKSVHKSWDIFFRNTNAGAPPGTAYQSPLSLSRSSLATMAHAQSLVEAQPNVDKLVEDHLAVQSLIRAYQIRGHHVAQLDPLGILDADLDSSVPADIISSTDKLGFYGLHESDLDKVFHLPTTTFIGGQEPALPLREIIRRLEMAYCQHIGVEFMFINDLEQCQWIRQKFETPGIMQFTNEEKRTLLARLVRSTRFEEFLQRKWSSEKRFGLEGCEVLIPALKTIIDMSSANGVDYVIMGMPHRGRLNVLANVIRKELEQIFCQFDSKLEAADEGSGDMKYHLGMYHRRINRVTDRNITLSLVANPSHLEAADPVVMGKTKAEQFYCGDTEGKKVMSILLHGDAAFAGQGIVYETFHLSDLPSYTTHGTVHVVVNNQIGFTTDPRMARSSPYPTDVARVVNAPIFHVNSDDPEAVMYVCKVAAEWRNTFHKDVVVDLVCYRRNGHNEMDEPMFTQPLMYKQIRKQKPVLQKYAELLVSQGVVNQPEYEEEISKYDKICEEAFTRSKDEKILHIKHWLDSPWPGFFTLDGQPRSMTCPSTGLEEDILTHIGNVASSVPVENFTIHGGLSRILKTRRELVTNRTVDWALAEYMAFGSLLKEGIHVRLSGQDVERGTFSHRHHVLHDQNVDKRTCIPMNHLWPNQAPYTVCNSSLSEYGVLGFELGFAMASPNALVLWEAQFGDFNNMAQCIIDQFICPGQAKWVRQNGIVLLLPHGMEGMGPEHSSARPERFLQMCNDDPDVLPNLQEENFDISQLYDCNWIVVNCSTPGNFFHVLRRQILLPFRKPLIVFTPKSLLRHPEARTSFDEMLPGTHFQRVIPEDGPAAQNPDKVKRLLFCTGKVYYDLTRERKARDMAEEVAITRIEQLSPFPFDLLLKEAQKYPNAELAWCQEEHKNQGYYDYVKPRLRTTIDRAKPVWYAGRDPAAAPATGNKKTHLTELQRFLDTAFDLDAFKKFS
notes: the tissue fractions with the complexes enriched to a degree allowing for a robust detection of the enzymatic activities, have been used; from tissue; host or cells: rat liver
B1: the Km came out at 450 ± 60 µM in data set [2] (other: heart preparation), 270 ± 60 µM in data set [2] (other: liver preparation), 450 ± 120 µM in data set [3] and 550 ± 70 µM in data set [4].

B2: OADH (Rattus norvegicus) (protein)
chain: MASATVAAAGRALRRAVPLLRRSYQTERGVYGYRPRKAGSGEPRGDRARPSVDHGLARLVTVYCEHGHKAAQINPLFPGQALLDTVPEIQALVQTLQGPFTTTGLLNMGKEEASLEEVLAYLNHIYCGPISIETAQLQSQEEKDWFARRFEELKKETFTTEERKHLSKLLLESQEFDHFLATKFATVKRYGGEGAESMMGFFHELLKLSAYGGITDIIIGMPHRGRLNLLTGLLQLPPELMFRKMRGLSEFPENVAAIGDVLSHLTSSVDLDFGAHRPLHVTMLPNPSHLEAINPVAVGKTRGRQQSQEDGDYSPNGSAQPGDKVICLQVHGDASFCGQGIVLETFTLSNLPHFRIGGSIHLIVNNQLGYTTPAERGRSSLYSSDIGKLVGCAIIHVNGDSPEEVVRATRLAFEYQRQFRKDVIIDLLCYRQWGHNELDEPFFTNPVMYKIIRARKSIPDTYAEHLIASGLMTQEEVSDIKASYYAKLNGHLANVAHYSPPAPHLQARWQGLVQPAACVTTWDTGVPLELLRFVGVKSVEVPEELQLHSHLLKMYVQSRMEKVKNGTNLDWATAETLALGSLLAQGFNVRLSGQDVGRGTFSQRHAMVVCQNTDDVYIPLNHMDPNQKGFLEVSNSPLSEEAVLGFEYGMSIESPKLLPLWEAQFGDFFNGAQIIFDTFISGGEAKWLLQSGLVILLPHGYDGAGPDHSSCRIERFLQMCDSAEEGVDSDTVNMFVVHPTTPAQYFHLLRRQMMRNFRKPLIVASPKMLLRYPVAVSTLEEMAPGTAFKPVIGDSSVDPKNVKTLIFCSGKHFYALLKQRESLGAKKRDFAIIRLEELCPFPLDSLQQEMGKYKHVQDIIWSQEEPQNMGPWSFVYPRFEKQLACKLRLVSRPPLPAPAVGIGTVHQQQHEAILFKTFTS
Turning to B2, in data set [5], the Km is 8 ± 1 µM and 7.7 ± 0.8 µM.
